Values quoted from earlier work as cited in US9512402B2, “Compositions for the preparation of mature dendritic cells” (Helmholtz Zentrum Munchen Deutsches Forschungszentrum fur …, priority 2006, dated 2016).

System: mature DCs
Conditions: DCs matured only with IFNα; Frankenberger 2005

IFNα
EGFP protein expression following RNA transfer: failed to express EGFP protein
